Experimental findings from patent publication EP0845217A1, “Inhibiting undesirable taste in oral compositions” (priority 1996, dated 1998) are described below.

One assay deals with mud puppy taste cells. The assay is described as follows: Response of isolated taste cells to bitter-tasting compounds, intracellular calcium fluorescence. The format is cell-based. The note with it: for taste cell response to bitter tasting compound: bitter compound alone; for effect on taste cell response to denatonium benzoate: inhibitor mixed with denatonium benzoate; for effect on taste cell response to dextromethorphan: inhibitor mixed with dextromethorphan. The method, then:
Taste cells are isolated from the mud puppy, a type of salamander (S. C. Kinnamon, et al, Chemical Senses 13: 355 - 366, 1988). Briefly, a fresh mud puppy tongue is incubated with collagenase, the non-gustatory epithelium is peeled off the surface, and individual taste buds are gently drawn into a micropipette using a dissecting microscope at 50X magnification. The taste buds are plated into small vessels, that are coated with Cell-Tak, containing culture media. The taste cells can remain viable up to 18 days and maintain normal functions (C. Ruiz, et al, Experimental Cell Biology of Taste and Olfaction, Current Techniques and Protocols, A. I. Spielman and J. G. Brand, eds., CRC Press, 1995, pp. 79 - 84). The taste cells are labeled intracellularly with a marker compound that fluoresces in a dose-dependent fashion to calcium ion concentration. Since an increase in the intracellular calcium ion concentration is one of the last steps in converging biochemical signal transduction pathways for bitterness, the fluorescent marker correlates with taste cell response to bitterness (D. Restrepo, et al, Experimental Cell Biology of Taste and Olfaction, Current Techniques and Protocols, A. I. Spielman and J. G. Brand, eds., CRC Press, 1995, pp. 387 - 398). Labeled taste cells are observed microscopically using image analysis software. Using a micropipette, taste cells are exposed to bitter-tasting compounds by adding the compounds in media near the taste cell. Cells that respond to the bitter-tasting compound show an increase in fluorescence intensity. Bitter inhibitors are tested by adding them to the test solution with the bitter-tasting compound. The response of individual taste cells to bitter-tasting compounds and to bitter-tasting compounds plus inhibitor are monitored by measuring the fluorescent intensity using a microscope. Images are stored electronically and image analysis software is used to analyze the data (D. Restrepo, et al, Biophysical Journal 64: 1961 - 1966, 1993).
For orientation: Calcium assays in cells follow changes in intracellular calcium, usually with a dye or a luminescent sensor.

For another assay, the target named is alkaline phosphatase (Bos taurus, UniProt P19111). Format: biochemical, bovine. The note with it: PNPP substrate. The method, then: Enzyme kinetics experiments are done using purified alkaline phosphatase from bovine intestine and the substrate para-nitrophenyl phosphate (PNPP). The formation of colored para-nitrophenol (PNP) from colorless PNPP is followed by measuring the color formation in the presence of inhibitor at several concentrations.
Specifically, enzyme reactions are done in a volume of 200 ul containing 12.5 mU/ml alkaline phosphatase, PNPP at concentrations between 0.5-200 mM, and an inhibitor at concentrations between 0-100 mM. […] Phosphoserine is the natural substrate for this enzyme. The final buffer solution is 0.9 M diethanolamine and 0.5 mM […], pH 9.8, mixed 3:1 (v:v) with water. Reactions are done in a 96-well microtiter plate. The enzyme reaction is initiated by the addition of the enzyme. Each reaction mixture is done in triplicate. The enzyme reaction is monitored by measuring the optical density (OD) at 405 nm, with a reference OD of 490 nm. The OD's are read every 30 seconds over a 15 minute period at room temperature. PNP concentration is determined based on a standard curve correlating OD405/490 vs. PNP concentration. […] The data is then transformed and plotted as the Kmapp / Vmax. vs. inhibitor concentration. From these plots the dissociation constant of the enzyme-inhibitor complex, Ki, is determined. The x-intercept on this plot equals (-Ki). […]

Assay [1] concerns the target protein tyrosine phosphatase (Yersinia enterocolitica, UniProt P15273). The assay is described as follows: Protein tyrosine phosphatase enzyme kinetics with PNPP substrate. Format: biochemical. The note with it: pH 7.5. The method, then: Enzyme kinetics are done using purified protein tyrosine phosphatase from the bacteria, Yersinia enterocolitica, recombinant form, with PNPP as the substrate. The enzyme kinetics experiments are done similarly to the kinetics experiments for alkaline phosphatase and acid phosphatase described above.
Each final reaction mixture contains 20 mM Tris, 0.1 % beta-mercaptoethanol, and 0.1% bovine serum albumin at pH 7.5. The ionic strength of each reaction mixture is the same and is balanced by the addition of the appropriate amount of NaCl. Activity of this enzyme is extremely sensitive to ionic strength. Each reaction is begun with the addition of tyrosine phosphatase. The formation of PNP is monitored by measuring the OD405/490 at 30 second intervals over a 30 minute period. The enzyme velocity is linear over this time period under these conditions. The Ki values are calculated as described above for alkaline phosphatase (Table 2).

Assay [2] relates to purified protein tyrosine phosphatase. Briefly: Purified protein tyrosine phosphatase, dephosphorylation of phosphotyrosine-containing peptide substrates. The format is biochemical. The conditions noted are these: experiments not described.
Assay [3] has as its system Pig taste tissue tyrosine phosphatase. The assay is described as follows: Protein tyrosine phosphatase activity of pig taste tissue homogenate, phosphotyrosine peptide substrates, ELISA. Format: biochemical. The conditions noted are these: for % Total Phosphatase Activity: pig taste tissue 615 ug/ml protein, 10°C for 20 min. The method, then:
Taste tissue (circumvallate papillae) is dissected from fresh pig tongue and homogenized in buffer. Protein tyrosine phosphatase activity is measured using peptides containing phosphotyrosine as the substrate. Two substrates are used. […] The removal of phosphate from the phosphotyrosines is determined by measurement of phosphotyrosine concentration, using an ELISA, after reaction of the peptide substrate with pig taste tissue. The activity of purified tyrosine phosphatase is determined in each experiment as a control.
In this experiment, pig taste tissue and peptide substrate are combined in a buffer of 20 mM Tris, 0.1% beta-mercaptoethanol, and 1 mg/ml BSA, pH 7.0. A total volume of 100 ul in each well of a 96-well microtiter plate is used. […] The enzyme reaction is done at 10°C for 20 min. The reaction is stopped by the addition of 25 ul 400 uM sodium orthovanadate. […]
In another experiment using the same conditions as described above, the tyrosine dephosphorylation of peptide substrate 1 is measured after 1, 2, 3, 4, 5, 6, 7 and 8 minute reactions at room temperature with pig taste tissue (41 ug/ml protein) as the enzyme source.
(An ELISA detects its analyte on a solid surface through an enzyme-linked reagent.)

SMILES strings stand for the structures. Counter-ions that a name gives are not always drawn.

alkaline phosphatase, sequence (P19111 20-506): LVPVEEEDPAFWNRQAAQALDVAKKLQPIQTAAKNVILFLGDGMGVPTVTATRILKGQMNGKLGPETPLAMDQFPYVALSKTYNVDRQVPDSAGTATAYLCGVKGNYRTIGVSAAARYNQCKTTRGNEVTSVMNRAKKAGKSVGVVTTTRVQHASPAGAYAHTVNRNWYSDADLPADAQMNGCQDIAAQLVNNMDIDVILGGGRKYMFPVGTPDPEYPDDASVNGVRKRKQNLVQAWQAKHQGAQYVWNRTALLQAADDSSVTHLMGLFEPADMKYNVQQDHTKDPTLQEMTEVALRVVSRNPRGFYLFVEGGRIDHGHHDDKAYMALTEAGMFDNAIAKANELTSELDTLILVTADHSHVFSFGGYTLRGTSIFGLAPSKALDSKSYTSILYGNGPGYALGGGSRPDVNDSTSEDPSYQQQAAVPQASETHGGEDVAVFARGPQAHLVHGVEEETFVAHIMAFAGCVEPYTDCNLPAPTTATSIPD
protein tyrosine phosphatase, sequence (P15273 whole entry): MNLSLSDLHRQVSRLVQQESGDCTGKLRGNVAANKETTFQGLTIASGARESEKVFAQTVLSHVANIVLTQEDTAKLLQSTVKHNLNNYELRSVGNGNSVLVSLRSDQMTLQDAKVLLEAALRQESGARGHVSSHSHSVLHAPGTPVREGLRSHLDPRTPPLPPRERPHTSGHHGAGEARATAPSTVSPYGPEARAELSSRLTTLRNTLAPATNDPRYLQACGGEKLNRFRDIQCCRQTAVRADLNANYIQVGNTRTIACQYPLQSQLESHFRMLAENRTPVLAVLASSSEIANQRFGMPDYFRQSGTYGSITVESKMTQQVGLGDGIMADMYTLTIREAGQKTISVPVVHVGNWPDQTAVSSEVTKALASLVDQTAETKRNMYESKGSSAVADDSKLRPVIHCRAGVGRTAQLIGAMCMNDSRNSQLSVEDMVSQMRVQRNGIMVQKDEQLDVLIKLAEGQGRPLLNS

For the compound `COc1ccc2c(c1)[C@]13CCCC[C@@H]1[C@H](C2)N(C)CC3` [dextromethorphan], the “taste cell response to bitter tasting compound” value in the assay with mud puppy taste cells is recorded as “increase in intracellular calcium concentration”.

One may read the Ki as the dissociation constant of the complex between target and ligand, obtained from inhibition or displacement. For `C=CCc1ccc(OP(=O)(O)O)c(OC)c1` [EMP, eugenylmonophosphate], the “type of inhibition of alkaline phosphatase” value at alkaline phosphatase is listed as “competitively inhibited”. The values for the inhibitory constant (Ki) in assay [1] (22°C) and in assay [1] (37°C) were 3.7 mM and 3.3 mM, respectively. The “effect on tyrosine phosphatase activity against peptide substrates” value (“effect on tyrosine phosphatase activity” below) in assay [2] is on record as “inhibits the activity”.

On to `N[C@@H](COP(=O)(O)O)C(=O)O` [Phosphoserine, reference compound], for which, on alkaline phosphatase, the “type of inhibition of alkaline phosphatase” value is “competitively inhibited”.

As for `CN(C)CCC(c1ccc(Cl)cc1)c1ccccn1` (stereo not drawn) [chlorpheniramine maleate], in the assay on mud puppy taste cells, the “taste cell response to bitter tasting compound” value is “increase in intracellular calcium concentration”.

With `CC1CCC(C(C)C)C(OP(=O)(O)O)C1` (stereo not drawn) [MMP, menthylmonophosphate], the “type of inhibition of alkaline phosphatase” value on alkaline phosphatase is recorded as “competitively inhibited”.

Regarding `NCCC(O)(P(=O)(O)O)P(=O)(O)O` [Pamidronic acid, pamidronic acid], in the assay on mud puppy taste cells, the “effect on taste cell response to denatonium benzoate” value (“effect … to denatonium benzoate” for short) is reported as “small reduction in response” and the “effect on taste cell response to dextromethorphan” value (“effect … to dextromethorphan” below) is given as “small reduction in response”.

Take `CC[N+](CC)(CC(=O)Nc1c(C)cccc1C)Cc1ccccc1` [denatonium benzoate]: in the assay with mud puppy taste cells, the “taste cell response to bitter tasting compound” value is given as “increase in intracellular calcium concentration”.

As to `Cc1ccc(C(C)C)c(OP(=O)(O)O)c1` [ThMP, thymylmonophosphate], at alkaline phosphatase, the “type of inhibition of alkaline phosphatase” value is listed as “competitively inhibited”. In addition, the Ki in assay [1] (22°C) worked out at 3.6 mM.

Take `C=C1[C@@H](O)[C@@H]2O[C@]3(CC[C@H](/C=C/[C@@H](C)[C@@H]4CC(C)=C[C@@]5(O[C@H](C[C@@](C)(O)C(=O)O)CC[C@H]5O)O4)O3)CC[C@H]2O[C@@H]1[C@@H](O)C[C@H](C)[C@H]1O[C@@]2(CCCCO2)CC[C@H]1C` [okadaic acid]: in the assay on mud puppy taste cells, the “effect … to denatonium benzoate” value was “has no effect on response” and the “effect … to dextromethorphan” value was “has no effect on response”.

As to `[Na+].[Na+].[Na+].[O]=[V]([O-])([O-])[O-]` [sodium orthovanadate], the figures for the “% Total Phosphatase Activity” value in assay [3] (Peptide Substrate 1) and in assay [3] (Peptide Substrate 2) were 32% and 46%, respectively. In assay [3] (pig taste tissue 41 ug/ml protein, room temperature, final concentration 100 nmoles/ml), the “time until complete dephosphorylation of substrate 1” value came to 7 min. The “effect … to denatonium benzoate” value in the assay on mud puppy taste cells is “inhibits the response”. In addition, the “effect on tyrosine phosphatase activity” value in assay [2] is “inhibits the tyrosine phosphatase activity”.

Regarding `O=P(O)(O)CP(=O)(O)O` [Methylene diphosphonic acid], the “share of taste cells tested with small decrease in response to denatonium benzoate” value in the assay on mud puppy taste cells (denatonium benzoate) is listed as 50%. Moreover, the “effect … to denatonium benzoate” value in the assay with mud puppy taste cells is recorded as “small decrease in response”.

As for `O=C(O)CP(=O)(O)O` [phosphonic acetic acid], in the assay on mud puppy taste cells, the “effect … to denatonium benzoate” value is recorded as “small reduction in response” and the “effect … to dextromethorphan” value was “small reduction in response”.

For the compound `N[C@@H](Cc1ccc(OP(=O)(O)O)cc1)C(=O)O` [phosphotyrosine], the “time until complete dephosphorylation of substrate 1” value in assay [3] (pig taste tissue 41 ug/ml protein, room temperature, final concentration 10 nmoles/ml) was 7 min. Further, in the assay with mud puppy taste cells (inhibitor mixed with chlorpheniramine maleate), the “effect on taste cell response to chlorpheniramine maleate” value is listed as “decreases the response”. Also, in the assay with mud puppy taste cells, the “effect … to denatonium benzoate” value is given as “decreases the response” and the “effect … to dextromethorphan” value is “decreases the response”. Further, in assay [2], the “effect on tyrosine phosphatase activity” value was “inhibit the dephosphorylation”.

On to `F` [calcium fluoride], for which the “% Total Phosphatase Activity” value in assay [3] (Peptide Substrate 1) is recorded as 109%; in assay [3] (Peptide Substrate 2), 96%. For the same compound, the “time until all phosphates are removed from peptide substrate 1” value in assay [3] (pig taste tissue 41 ug/ml protein, room temperature, calcium fluoride added, concentration not given) turned out to be 2 min. The “effect on tyrosine phosphatase activity” value in assay [2] is on record as “does not affect tyrosine phosphatase activity”.
